One experiment relates to Staphylococcus aureus. As to the kind of experiment: Antimicrobial activity against Staphylococcus aureus after 18 hrs by serial twofold dilution test. The class given is functional.
The target of experiment [1] is T1, Quinolone resistance protein NorA (Staphylococcus aureus) (UniProt P0A0J7).
T1 sequence (whole entry): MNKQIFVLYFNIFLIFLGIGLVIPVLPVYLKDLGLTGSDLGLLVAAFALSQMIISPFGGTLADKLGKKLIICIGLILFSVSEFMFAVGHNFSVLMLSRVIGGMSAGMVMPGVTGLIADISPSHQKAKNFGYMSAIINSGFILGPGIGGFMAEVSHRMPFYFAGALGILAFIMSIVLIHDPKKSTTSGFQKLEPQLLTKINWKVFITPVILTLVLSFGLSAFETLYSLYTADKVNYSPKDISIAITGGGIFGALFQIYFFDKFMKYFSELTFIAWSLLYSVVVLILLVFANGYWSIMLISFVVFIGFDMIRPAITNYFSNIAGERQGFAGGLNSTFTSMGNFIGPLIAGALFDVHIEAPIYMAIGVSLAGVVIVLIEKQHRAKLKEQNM
As to the kind of experiment: Inhibition of NorA MDR efflux pump in Staphylococcus aureus assessed as increase in antimicrobial activity of erythromycin at 10 ug/ml after 18 hrs by twofold serial dilution method.

In experiment [2] the target is T1, Quinolone resistance protein NorA (Staphylococcus aureus). The experiment in a line: Inhibition of NorA MDR efflux pump in Staphylococcus aureus assessed as increase in antimicrobial activity of tetracycline at 10 ug/ml after 18 hrs by twofold serial dilution method.
Another experiment concerns Bacillus cereus. As to the kind of experiment: Inhibition of NorA MDR efflux pump in Bacillus cereus assessed as fold increase in antimicrobial activity of berberine at 10 ug/ml after 24 hrs by twofold serial dilution method.
Experiment [3] deals with T1, Quinolone resistance protein NorA (Staphylococcus aureus). The experiment in a line: Inhibition of NorA MDR efflux pump in Staphylococcus aureus assessed as increase in antimicrobial activity of berberine at 10 ug/ml after 18 hrs by twofold serial dilution method.

≈ marks a conversion by molar mass, not a printed value. Calls of active or inactive are those of the source. The rule behind the calls is not given here.

With `C=CC(C)(C)c1cc(C2COc3c(CC=C(C)C)c(O)cc(O)c3C2=O)c(O)cc1O` (stereo not drawn) [DALVERSINOL A], the MIC in the experiment on Staphylococcus aureus was 31.3 µg/mL (≈ 73.7 µM).

Compound `COc1c(C)c(O)c(C)c(O)c1C(=O)/C=C/c1ccccc1` registered an MIC with Staphylococcus aureus of 250 µg/mL (≈ 838 µM). The result in experiment [1], in experiment [2] and in experiment [3] was Active. Also, the fold change (FC) in the experiment on Bacillus cereus came out at 30.

In the experiment on Staphylococcus aureus, `C=CC(C)(C)c1cc([C@@H]2CC(=O)c3c(O)cc(O)c(CC=C(C)C)c3O2)c(O)cc1O` showed an MIC of 7.8 µg/mL (≈ 18.4 µM).

On to `COc1ccc(/C=C/c2cc(OC)cc(OC)c2)cc1` [TRISMETHOXYRESVERATROL], for which the MIC against Staphylococcus aureus was determined as 500 µg/mL (≈ 1850 µM).

One may read the MIC as the lowest concentration that inhibits growth of the organism.

Source of the values: ChEMBL document CHEMBL1146518, “Phenolic metabolites of Dalea versicolor that enhance antibiotic activity against model pathogenic bacteria” (2004).
